Data on 22 molecules can be found in ChEMBL document CHEMBL1144049, “Functional assay and structure-activity relationships of new third-generation P-glycoprotein inhibitors” (Bioorg Med Chem, 2008).

The target in assay [1] is T1, ATP-dependent translocase ABCB1 (Homo sapiens, UniProt P08183). The experiment in a line: Inhibition of human Pgp in A2780 cells after 30 mins by Hoechst 33342 assay. The class given is cell-based.
Assay [2] addresses T1, ATP-dependent translocase ABCB1. The experiment in a line: Inhibition of human Pgp in A2780 cells after 30 mins by calcein AM assay. The class given is cell-based.
Assay [3] addresses ATP-dependent translocase ABCB1 (Mus musculus, UniProt P06795). Description: Inhibition of mouse Pgp in EMT6/AR1.0 cells after 1 hr by daunorubicin accumulation assay. The class given is cell-based.
The target in assay [4] is T1, ATP-dependent translocase ABCB1.
Description: Inhibition of Pgp by daunorubicin accumulation assay

ATP-dependent translocase ABCB1 (Mus musculus, UniProt P06795), sequence (P06795 whole entry): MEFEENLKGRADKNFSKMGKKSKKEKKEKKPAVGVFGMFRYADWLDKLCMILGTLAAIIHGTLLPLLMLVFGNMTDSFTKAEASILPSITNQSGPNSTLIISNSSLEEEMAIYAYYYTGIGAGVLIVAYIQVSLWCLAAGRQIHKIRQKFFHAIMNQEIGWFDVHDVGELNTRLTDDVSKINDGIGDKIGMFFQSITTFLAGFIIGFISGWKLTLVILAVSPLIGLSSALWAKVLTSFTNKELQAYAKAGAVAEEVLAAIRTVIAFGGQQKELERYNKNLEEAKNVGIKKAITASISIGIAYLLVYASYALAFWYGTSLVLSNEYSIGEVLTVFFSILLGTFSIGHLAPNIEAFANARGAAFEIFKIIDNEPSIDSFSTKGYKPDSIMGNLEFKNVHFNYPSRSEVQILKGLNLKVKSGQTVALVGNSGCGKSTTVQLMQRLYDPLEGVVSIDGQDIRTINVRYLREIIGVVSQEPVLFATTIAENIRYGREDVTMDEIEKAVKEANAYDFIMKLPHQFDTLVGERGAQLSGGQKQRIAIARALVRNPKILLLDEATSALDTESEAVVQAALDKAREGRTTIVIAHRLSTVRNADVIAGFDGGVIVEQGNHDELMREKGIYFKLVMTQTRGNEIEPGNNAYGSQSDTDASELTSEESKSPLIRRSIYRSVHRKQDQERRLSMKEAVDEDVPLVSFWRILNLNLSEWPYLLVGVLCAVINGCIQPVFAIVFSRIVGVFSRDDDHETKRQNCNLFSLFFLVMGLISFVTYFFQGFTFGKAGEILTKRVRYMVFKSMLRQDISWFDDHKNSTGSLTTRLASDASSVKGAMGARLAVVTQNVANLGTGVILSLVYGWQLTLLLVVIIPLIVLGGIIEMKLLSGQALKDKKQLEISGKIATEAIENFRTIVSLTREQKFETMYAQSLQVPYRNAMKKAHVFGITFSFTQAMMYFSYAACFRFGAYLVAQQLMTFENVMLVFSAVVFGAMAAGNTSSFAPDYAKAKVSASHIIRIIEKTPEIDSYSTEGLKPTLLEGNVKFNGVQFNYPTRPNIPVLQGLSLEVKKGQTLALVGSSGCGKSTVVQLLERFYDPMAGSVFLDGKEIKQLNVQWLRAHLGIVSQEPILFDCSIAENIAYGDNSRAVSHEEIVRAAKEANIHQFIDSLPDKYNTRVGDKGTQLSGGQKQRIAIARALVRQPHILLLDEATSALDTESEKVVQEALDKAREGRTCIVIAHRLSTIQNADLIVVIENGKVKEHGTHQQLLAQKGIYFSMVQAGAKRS
T1 sequence (P08183 whole entry): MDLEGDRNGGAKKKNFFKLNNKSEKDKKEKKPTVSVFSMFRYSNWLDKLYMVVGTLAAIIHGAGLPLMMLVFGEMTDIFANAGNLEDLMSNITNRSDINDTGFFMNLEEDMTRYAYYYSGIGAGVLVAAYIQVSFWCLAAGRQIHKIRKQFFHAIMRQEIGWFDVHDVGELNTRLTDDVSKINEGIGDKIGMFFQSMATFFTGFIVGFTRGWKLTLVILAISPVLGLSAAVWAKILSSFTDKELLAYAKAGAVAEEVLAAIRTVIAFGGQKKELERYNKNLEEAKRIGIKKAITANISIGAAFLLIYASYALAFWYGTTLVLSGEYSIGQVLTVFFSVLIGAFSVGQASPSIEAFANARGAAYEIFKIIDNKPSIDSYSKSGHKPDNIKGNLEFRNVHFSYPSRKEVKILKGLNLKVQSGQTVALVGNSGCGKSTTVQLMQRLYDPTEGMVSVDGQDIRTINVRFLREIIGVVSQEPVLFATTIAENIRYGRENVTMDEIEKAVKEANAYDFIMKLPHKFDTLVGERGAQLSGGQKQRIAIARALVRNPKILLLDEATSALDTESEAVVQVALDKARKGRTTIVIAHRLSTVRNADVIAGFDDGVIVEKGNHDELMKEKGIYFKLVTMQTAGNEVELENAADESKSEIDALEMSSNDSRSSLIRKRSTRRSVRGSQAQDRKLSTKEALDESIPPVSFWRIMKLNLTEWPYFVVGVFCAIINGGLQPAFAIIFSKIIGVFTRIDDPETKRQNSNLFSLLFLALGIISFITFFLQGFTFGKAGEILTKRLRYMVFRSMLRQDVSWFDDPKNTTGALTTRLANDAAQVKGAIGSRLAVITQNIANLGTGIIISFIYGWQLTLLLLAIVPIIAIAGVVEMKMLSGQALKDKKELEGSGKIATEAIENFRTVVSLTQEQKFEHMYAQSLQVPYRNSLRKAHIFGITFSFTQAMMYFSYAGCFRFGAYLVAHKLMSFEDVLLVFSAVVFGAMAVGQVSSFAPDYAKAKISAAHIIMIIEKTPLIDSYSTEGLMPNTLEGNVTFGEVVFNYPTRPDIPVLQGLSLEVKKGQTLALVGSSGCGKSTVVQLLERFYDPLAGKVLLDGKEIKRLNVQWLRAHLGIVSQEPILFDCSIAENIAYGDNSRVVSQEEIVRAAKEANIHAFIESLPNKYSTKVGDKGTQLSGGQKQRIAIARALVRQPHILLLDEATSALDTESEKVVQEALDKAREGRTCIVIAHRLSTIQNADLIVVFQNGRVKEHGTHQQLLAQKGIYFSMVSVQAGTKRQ

As to `O=C(Nc1ccc(CCN2CCc3ccccc3C2)cc1)c1ccccc1[N+](=O)[O-]`, the concentration for half-maximal inhibition (IC50) in assay [1] was 13500 nM; in assay [2], 12300 nM.

Take `COc1cc2c(cc1OC)CN(CCc1ccc(NC(=O)c3ccnc4ccccc34)cc1)CC2`: the IC50 in assay [1] is 2240 nM; in assay [2], 2820 nM.

For the molecule `COc1cc2c(cc1OC)CN(CCc1ccc(NC(=O)c3cnc4ccccc4n3)cc1)CC2`, the half-maximal inhibitory concentration (IC50) is 209 nM in assay [1] and 490 nM in assay [2].

For `COc1cc2c(cc1OC)CN(CCc1ccc(NC(=O)c3ccccc3NC(=O)c3ccc(C)cc3)cc1)CC2`, the IC50 in assay [1] was 525 nM; in assay [2], 692 nM; in assay [3] it was 260 nM.

With `COc1cc2c(cc1OC)CN(CCc1ccc(NC(=O)c3cnc4ccccc4c3)cc1)CC2`, the half-inhibitory concentration (IC50) was 145 nM in assay [1] and 646 nM in assay [2].

For `COc1cc2c(cc1OC)CN(CCc1ccc(NC(=O)c3cc4ccccc4cn3)cc1)CC2`, the IC50 in assay [1] is 776 nM; in assay [2] it was 851 nM.

With `COc1cc2c(cc1OC)CN(CCc1ccc(NC(=O)c3cccc(Br)c3)cc1)CC2`, the IC50 in assay [1] was 3240 nM; in assay [2], 2290 nM.

Consider `COc1cc2c(cc1OC)CN(CCc1ccc(NC(=O)c3cccc4ccccc34)cc1)CC2`, for which the values for the IC50 in assay [1] and in assay [2] were 1860 nM and 1410 nM, respectively.

As for `COc1cc2c(cc1OC)CN(CCc1ccc(NC(=O)c3ccc4ccccc4c3)cc1)CC2`, the IC50 in assay [1] and in assay [2] was 776 nM each time.

Turning to `O=C(Nc1ccc(CCN2CCc3ccccc3C2)cc1)c1ccc([N+](=O)[O-])cc1`, the 50% inhibitory concentration (IC50) is 5010 nM in assay [1] and 4470 nM in assay [2].

Regarding `COc1cc2c(cc1OC)CN(CCc1ccc(NC(=O)c3ccc(N)cc3)cc1)CC2`, the IC50 in assay [1] was 7080 nM; in assay [2], 4070 nM.

Turning to `COc1cc2c(cc1OC)CN(CCc1ccc(NC(=O)c3ccccc3NC(=O)c3ccccc3)cc1)CC2`, the figures for the IC50 in assay [2], in assay [4] and in assay [3] were 724 nM, 250 nM and 300 nM, respectively.

Turning to `COc1cc2c(cc1OC)CN(CCc1ccc(NC(=O)c3cc(OC)c(OC)cc3NC(=O)c3cnc4ccccc4c3)cc1)CC2`, the IC50 in assay [1] was 126 nM; in assay [4], 38 nM; in assay [3], 64 nM.

In the case of `COc1cc2c(cc1OC)CN(CCc1ccc(NC(=O)c3ccccc3Br)cc1)CC2`, the results for the IC50 in assay [1] and in assay [2] were 3470 nM and 4270 nM, respectively.

Regarding `COc1cc2c(cc1OC)CN(CCc1ccc(NC(=O)c3ccc4ncccc4c3)cc1)CC2`, the 50% inhibitory concentration (IC50) in assay [1] is 741 nM; in assay [2], 724 nM.

As for `COc1cc2c(cc1OC)CN(CCc1ccc(NC(=O)c3cccnc3)cc1)CC2`, the half-inhibitory concentration (IC50) in assay [1] is 3160 nM; in assay [2] it was 4170 nM.

Turning to `Nc1ccc(C(=O)Nc2ccc(CCN3CCc4ccccc4C3)cc2)cc1`, the 50% inhibitory concentration (IC50) in assay [1] was 4170 nM; in assay [2] it was 13500 nM.

`O=C(Nc1ccccc1C(=O)Nc1ccc(CCN2CCc3ccccc3C2)cc1)c1cnc2ccccc2c1`: the concentration for half-maximal inhibition (IC50) in assay [2] is 447 nM; in assay [3], 320 nM.

In the case of `COc1cc2c(cc1OC)CN(CCc1ccc(NC(=O)c3ccccc3N)cc1)CC2`, the concentration for half-maximal inhibition (IC50) was 11200 nM in assay [1] and 9120 nM in assay [2].

Take `COc1cc2c(cc1OC)CN(CCc1ccc(NC(=O)c3ccccc3[N+](=O)[O-])cc1)CC2`: the IC50 in assay [1] is 5500 nM; in assay [2] it was 4790 nM.

For the molecule `COc1cc2c(cc1OC)CN(CCc1ccc(NC(=O)c3ccccc3NC(=O)c3cnc4ccccc4c3)cc1)CC2`, the IC50 was 166 nM in assay [1], 240 nM in assay [2], 87 nM in assay [4] and 50 nM in assay [3].

With `COc1cc2c(cc1OC)CN(CCc1ccc(NC(=O)c3ccc([N+](=O)[O-])cc3)cc1)CC2`, the IC50 was 1380 nM in assay [1] and 1100 nM in assay [2].
